According to paper PMC6688371, “Effect of the inhaled PDE4 inhibitor CHF6001 on biomarkers of inflammation in COPD” (Respiratory Research, 2019):

Key:
[1] = Stability of CHF6001 in human plasma (bioanalytical validation); format: in vitro ADME
Protocol: Effect of CHF6001 on inflammatory biomarkers – Additional file 1 to –90C. The plasma concentration of CHF6001 was evaluated using a LC-MS/MS method following solid phase extraction. Validation procedures again followed those outlined for the analysis of biomarkers above. The bioanalytical method wa s found to be linear over the calibration range of 10 to 20,000 pg/mL. The precision and accuracy of the method was found to be within the target limits of within 20% at the lower limit of quantification 10 pg/mL and within 15% at all other concentrations.
The recovery of CHF6001 from human plasma was consistent across the analytical range , with no significant matrix effects. […]
for up to 24 h at the sample processing temperature (nominally +20C), a fter storage for 184 days in a freezer (nominally –80C) and after four freeze-thaw cycles at nominally – 80C / +20C. Therefore the method was considered to be suitable for measuring concentrations of CHF6001 in human plasma samples from regulatory studies.
The study was approved by two centralised ethics committees on behalf of the sites:
• UK: Health Research Authority, North West, Greater Manchester South Research Ethics Committee, Manchester (approval reference 16/NW/0553).
• Germany: Ethics Committee of Hesse Medical Association, Frankfurt am Main (approval reference FF 98/2016).
Patients had to meet all the following inclusion criteria to be eligible for enrolment into the […]
1. Written informed consent obtained prior to any study-related procedures;
2. Male or female aged ≥40 years;
3. A female was eligible to enter the study if they were of non-childbearing potential, i.e. physiologically incapable of becoming pregnant (e.g. postmenopausal women defined as being amenorrhoeic for ≥12 consecutive months without an alternative medical cause. If indicated, as per Investigator’s request, post -menopausal status

[2] = tested on: patients with COPD; assay: Safety and tolerability (adverse events, vital signs, ECG, laboratory data)
Excerpt: The Safety population is all randomised patients who received at least one dose of study medication.

CS(=O)(=O)Nc1ccc(C(=O)O[C@@H](Cc2c(Cl)c[n+]([O-])cc2Cl)c2ccc(OC(F)F)c(OCC3CC3)c2)cc1OCC1CC1 [CHF6001]
Storage time found stable in human plasma ([1]; freezer (nominally –80C)): 184 days | Freeze-thaw cycles found stable in human plasma ([1]; nominally –80C / +20C): four | Time found stable in human plasma ([1]; sample processing temperature (nominally +20C)): up to 24 h | Adverse events ([2]; 800 μg BID (N = 58)): 30 (51.7) patients (%) | Adverse events leading to study drug withdrawal ([2]; 800 μg BID (N = 58)): 3 (5.2) patients (%) | Adverse events with a fatal outcome ([2]; 800 μg BID (N = 58)): 0 patients (%) | Back pain ([2]; 800 μg BID (N = 58)): 4 (6.9) patients (%) | Cough ([2]; 800 μg BID (N = 58)): 1 (1.7) patients (%) | Diarrhoea ([2]; 800 μg BID (N = 58)): 3 (5.2) patients (%) | Drug-related adverse events ([2]; 800 μg BID (N = 58)): 1 (1.7) patients (%) | Drug-related adverse events: Dry mouth ([2]; 800 μg BID (N = 58)): 0 patients (%) | Drug-related adverse events: Sleep disorders ([2]; 800 μg BID (N = 58)): 1 (1.7) patients (%) | Drug-related serious adverse events ([2]; 800 μg BID (N = 58)): 0 patients (%) | Fatigue ([2]; 800 μg BID (N = 58)): 1 (1.7) patients (%) | Headache ([2]; 800 μg BID (N = 58)): 1 (1.7) patients (%) | Nasopharyngitis ([2]; 800 μg BID (N = 58)): 5 (8.6) patients (%) | Oropharyngeal pain ([2]; 800 μg BID (N = 58)): 3 (5.2) patients (%) | Serious adverse events ([2]; 800 μg BID (N = 58)): 2 (3.4) patients (%) | Severe adverse events ([2]; 800 μg BID (N = 58)): 0 patients (%) | Tension headache ([2]; 800 μg BID (N = 58)): 1 (1.7) patients (%) | Toothache ([2]; 800 μg BID (N = 58)): 3 (5.2) patients (%) | Patients reporting gastrointestinal adverse events ([2]; 800 μg BID, seven patients): 12.1% | Adverse events ([2]; 1600 μg BID (N = 59)): 33 (55.9) patients (%) | Adverse events leading to study drug withdrawal ([2]; 1600 μg BID (N = 59)): 2 (3.4) patients (%) | Adverse events with a fatal outcome ([2]; 1600 μg BID (N = 59)): 0 patients (%) | Back pain ([2]; 1600 μg BID (N = 59)): 1 (1.7) patients (%) | Cough ([2]; 1600 μg BID (N = 59)): 3 (5.1) patients (%) | Diarrhoea ([2]; 1600 μg BID (N = 59)): 1 (1.7) patients (%) | Drug-related adverse events ([2]; 1600 μg BID (N = 59)): 1 (1.7) patients (%) | Drug-related adverse events: Dry mouth ([2]; 1600 μg BID (N = 59)): 1 (1.7) patients (%) | Drug-related adverse events: Sleep disorders ([2]; 1600 μg BID (N = 59)): 0 patients (%) | Drug-related serious adverse events ([2]; 1600 μg BID (N = 59)): 0 patients (%) | Fatigue ([2]; 1600 μg BID (N = 59)): 3 (5.1) patients (%) | Headache ([2]; 1600 μg BID (N = 59)): 7 (11.9) patients (%) | Nasopharyngitis ([2]; 1600 μg BID (N = 59)): 6 (10.2) patients (%) | Oropharyngeal pain ([2]; 1600 μg BID (N = 59)): 2 (3.4) patients (%) | Serious adverse events ([2]; 1600 μg BID (N = 59)): 2 (3.4) patients (%) | Severe adverse events ([2]; 1600 μg BID (N = 59)): 1 (1.7) patients (%) | Tension headache ([2]; 1600 μg BID (N = 59)): 3 (5.1) patients (%) | Toothache ([2]; 1600 μg BID (N = 59)): 1 (1.7) patients (%) | Patients reporting gastrointestinal adverse events ([2]; 1600 μg BID, six patients): 10.2% | Haematology or biochemistry data, between treatments ([2]; 800 or 1600 μg BID and placebo): no major differences | Systolic or diastolic blood pressure, heart rate or Fridericia's corrected QT interval vs placebo ([2]; either dose (800 or 1600 μg BID)): no differences
